Measurements from patent US20250152583A1, “AMILORIDE FOR USE IN THE TOPICAL TREATMENT OF SOMATOSENSORY IMPAIRMENTS” (ASSISTANCE PUBLIQUE - HOPITAUX DE PARIS, priority 2022, published 2025).

What was measured:
Format in all cases: in vivo, human
[1] = test system: patient with peripheral sensory neuropathy of feet and hands with hypoesthesia and proprioceptive disorders; test: Case report: amiloride cream on hypoesthetic areas, neuropathy induced by Ado-trastuzumab emtansine (T-DM1); settings: cream of amiloride 5%, applied locally to hypoesthetic areas twice a day
Source text: A patient received Ado-trastuzumab emtansine (T-DM1), the first HER2-targeted antibody-drug conjugate to get the approval of the Food and Drug Administration (FDA), for the treatment of their metastatic HER2-positive breast cancer.
For more than 2 years, they had repeated falls due to loss of feeling in their feet, cuts on their hands, unnoticed burns, “splinters in the skin following their gardening activities” with infection in the aftermath because they had not realized it.
They complained of often dropping objects held in their hands and of no longer being able to sew due to the impossibility of holding a fine needle.
They were treated with a cream of amiloride 5% applied locally to the hypoesthetic areas twice a day.

[2] = test system: patient with hypoesthesia and proprioceptive disorders; test: Case report: amiloride cream on hypoesthetic areas, hypoesthesia and proprioceptive disorders after bortezomib; settings: cream of amiloride 10%, twice a day, after 1 month of use
Procedure: A patient suffered from hypoesthesia and proprioceptive disorders with difficulty gripping the foot on the ground, impression of walking on cotton and complained of the impression of having a permanently rolled sock under the feet in addition to a sensation of having edematous toes since they received a treatment with bortezomib in 2016 for treating their myeloma. They were treated with a cream of amiloride 10% applied locally to the hypoesthetic areas twice a day.

[3] = test system: patient with hypoesthesia with lost sensations in feet and fingertips; test: Case report: amiloride cream, hypoesthesia after oxaliplatine
Procedure: A patient suffering from colon cancer was treated for 4 months with oxaliplatine in December 2019. They developed hypoesthesia with lost sensations in feet and in the fingertips of both hands and complained of having the impression of a permanently “rolled sock” under the feet. They were treated with a cream of amiloride 10% applied twice a day during one month and they noticed an improvement in the feeling of the right foot “rolled sock” (4/10 vs 8/10 before this treatment), a little less on the left foot (6/10 vs 8/10).

[4] = test system: patients with somatosensory impairments; test: Summary statement: patients treated with a topical composition of amiloride

**Q.** For NC(N)=NC(=O)c1nc(Cl)c(N)nc1N [amiloride, 3,5-diamino-6-chloro-N-(diaminomethylidene) pyrazine-2-carboxamide], which “sensation of hands and feet” value [1] is on record?
**A.** regained the sensation of their hands and feet

**Q.** What about the “impression of having a permanently rolled sock under the feet” value [2] of the same compound?
**A.** disappeared

**Q.** What about the “impression of walking on cotton” value [2] of the same compound?
**A.** disappeared

**Q.** What about the “sensation of edema of the toes” value [2] of the same compound?
**A.** has disappeared

**Q.** And the “feeling of hot and cold on the soles of the feet” value ([2]; patient)?
**A.** feels better hot and cold on the soles of their feet

**Q.** What about the “sensation "rolled sock"” value ([3]; amiloride concentration in the cream increased to 15%) of the same compound?
**A.** further decrease the sensation “rolled sock” even on the left foot

**Q.** What about the “sensitivity in the fingertips of both hands” value ([3]; cream of amiloride 10%, twice a day during one month) of the same compound?
**A.** regained the sensitivity in the fingertips of both hands

**Q.** And the “feeling of "rolled sock", left foot” value ([3]; cream of amiloride 10%, twice a day during one month, 8/10 before treatment)?
**A.** 6/10

**Q.** What about the “feeling of "rolled sock", right foot” value ([3]; cream of amiloride 10%, twice a day during one month, 8/10 before treatment, patient) of the same compound?
**A.** 4/10

**Q.** What about the “sensations in insensitive body areas, proprioception and mechanical allodynia” value [4] of the same compound?
**A.** able to recover sensations in insensitive body areas and a correct proprioception and noted the disappearance of mechanical allodynia
